Reference: patent publication US10336702B2, “Pharmaceutically active compounds” (BERGENBIO ASA, priority 2015, dated 2019)

Tests used:
p-Akt1 in LNCaP cells = molecular target: T1, p-Akt1 in LNCaP cells (Homo sapiens, UniProt P31749); experiment: Phospho-Akt cellular SureFire assay, p-Akt1 in LNCaP cells; format: cell-based; conditions: read-out: Biological Assay 2 IC50 (nM) Akt1 LNCaP
T1 construct: SureFire assays to detect cellular p-Akt1, p-Akt2 and p-Akt3 levels in WM115 cells (Akt2/3) and LNCaP cells (Akt1); endogenous in cells; host or cells: LNCaP (ECACC 89110211)
T1 sequence (P31749 whole entry): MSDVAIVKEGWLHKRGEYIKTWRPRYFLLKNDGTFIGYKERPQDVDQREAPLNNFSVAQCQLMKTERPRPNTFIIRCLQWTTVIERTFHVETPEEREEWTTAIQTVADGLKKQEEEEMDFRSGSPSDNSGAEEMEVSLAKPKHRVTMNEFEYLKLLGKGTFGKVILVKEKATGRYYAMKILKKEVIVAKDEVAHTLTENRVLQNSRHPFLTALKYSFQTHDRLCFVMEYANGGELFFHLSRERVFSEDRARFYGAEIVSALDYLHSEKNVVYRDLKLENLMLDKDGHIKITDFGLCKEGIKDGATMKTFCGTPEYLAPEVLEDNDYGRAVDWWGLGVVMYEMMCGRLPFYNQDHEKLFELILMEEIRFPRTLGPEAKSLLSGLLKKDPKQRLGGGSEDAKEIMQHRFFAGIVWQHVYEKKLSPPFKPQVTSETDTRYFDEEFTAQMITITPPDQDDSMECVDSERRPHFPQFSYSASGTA
Procedure, shortened: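 Phospho-Thr308 Akt1 detected by AlphaScreen SureFire proximity beads in LNCaP lysates after 15 min compound treatment at 37 °C in 0.1% FBS medium, unstimulated, 0.3% DMSO. Cells plated at 5×10^4/well overnight; IC50 from a 4-parameter equation.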

Akt3 = molecular target: T2, Akt3 (Homo sapiens, UniProt Q9Y243); experiment: Akt activation assay (PDK1-mediated activation, LANCE Ultra crosstide TR-FRET), Akt3; format: biochemical; conditions: read-out: Biological Assay 1 IC50 (nM) Akt3
T2 construct: unspecified tag, removed (detagged) (cleaved yes); purchased SignalChem and Proteros (Akt3); Merck Millipore (PDK1) 14-452 (PDK1); none given for Akt3
T2 sequence (Q9Y243 whole entry): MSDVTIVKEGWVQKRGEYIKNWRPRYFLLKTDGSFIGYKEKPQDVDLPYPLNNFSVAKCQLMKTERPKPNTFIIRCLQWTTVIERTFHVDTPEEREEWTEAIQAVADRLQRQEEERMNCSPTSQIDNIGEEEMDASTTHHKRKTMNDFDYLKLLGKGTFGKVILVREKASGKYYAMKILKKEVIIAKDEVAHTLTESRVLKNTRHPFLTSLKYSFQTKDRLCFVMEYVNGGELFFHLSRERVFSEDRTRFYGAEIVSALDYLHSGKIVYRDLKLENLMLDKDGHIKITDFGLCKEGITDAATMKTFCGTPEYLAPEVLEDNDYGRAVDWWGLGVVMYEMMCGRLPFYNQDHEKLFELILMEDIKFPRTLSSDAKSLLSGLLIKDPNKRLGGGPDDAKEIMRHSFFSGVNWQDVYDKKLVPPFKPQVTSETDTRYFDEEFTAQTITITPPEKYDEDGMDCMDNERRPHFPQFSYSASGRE
Procedure, shortened: (§1)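 Two-step cascade format: Akt1, Akt2 or Akt3 phosphorylates Ulight-crosstide (100 nM) only after activation by 5 nM PDK1 in presence of PtdIns(3,4,5)P3 vesicles and 100 μM ATP. Product quantified by Eu-antibody TR-FRET after 30 min reaction.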

p-Akt3 in WM115 cells = molecular target: T3, p-Akt3 in WM115 cells (Homo sapiens, UniProt Q9Y243); experiment: Phospho-Akt cellular SureFire assay, p-Akt3 in WM115 cells; format: cell-based; conditions: insulin stimulated, read-out: Biological Assay 2 IC50 (nM) Akt3 WM115
T3 construct: SureFire assays to detect cellular p-Akt1, p-Akt2 and p-Akt3 levels in WM115 cells (Akt2/3) and LNCaP cells (Akt1); endogenous in cells; host or cells: WM115 (ECACC 91061232), insulin-stimulated
T3 sequence (Q9Y243 whole entry): as above
Procedure, shortened: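 pThr308-Akt3 in lysates was quantified by bead-proximity SureFire detection, pairing a phospho-specific antibody with a total Akt3 antibody. Before lysis, WM115 cells in 0.1% FBS medium were treated for 15 min at 37 °C with compound (final DMSO 0.3%), following a 10 min stimulation with 100 nM insulin. IC50 was obtained by 4-parameter fitting.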

Akt2 = molecular target: T4, Akt2 (Homo sapiens, UniProt P31751); experiment: Akt activation assay (PDK1-mediated activation, LANCE Ultra crosstide TR-FRET), Akt2; format: biochemical; conditions: read-out: Biological Assay 1 IC50 (nM) Akt2
T4 construct: unspecified tag, removed (detagged) (cleaved yes); purchased SignalChem and Proteros (Akt2); Merck Millipore (PDK1) 14-452 (PDK1); none given for Akt2
T4 sequence (P31751 whole entry): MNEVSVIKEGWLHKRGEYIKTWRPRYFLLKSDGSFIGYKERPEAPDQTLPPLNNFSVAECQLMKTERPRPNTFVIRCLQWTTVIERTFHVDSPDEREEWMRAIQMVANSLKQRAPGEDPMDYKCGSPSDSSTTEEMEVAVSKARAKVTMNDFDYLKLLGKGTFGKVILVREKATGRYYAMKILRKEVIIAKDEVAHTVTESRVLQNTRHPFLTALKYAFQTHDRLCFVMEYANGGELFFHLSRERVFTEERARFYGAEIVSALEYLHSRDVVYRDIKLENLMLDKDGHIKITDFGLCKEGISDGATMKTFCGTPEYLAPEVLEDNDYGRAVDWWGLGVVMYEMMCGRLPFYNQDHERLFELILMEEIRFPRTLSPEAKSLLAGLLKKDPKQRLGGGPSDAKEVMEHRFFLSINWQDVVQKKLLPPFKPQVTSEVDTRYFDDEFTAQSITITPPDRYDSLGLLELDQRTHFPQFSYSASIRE
Procedure, shortened: as §1

Akt1 = molecular target: T5, Akt1 (Homo sapiens, UniProt P31749); experiment: Akt activation assay (PDK1-mediated activation, LANCE Ultra crosstide TR-FRET), Akt1; format: biochemical; conditions: read-out: Biological Assay 1 IC50 (nM) Akt1
T5 construct: unspecified tag, removed (detagged) (cleaved yes); purchased SignalChem and Proteros (Akt1); Merck Millipore (PDK1) 14-452 (PDK1); none given for Akt1
T5 sequence (P31749 whole entry): as the sequence (P31749 whole entry) above
Procedure, shortened: as §1

p-Akt2 in WM115 cells = molecular target: T6, p-Akt2 in WM115 cells (Homo sapiens, UniProt P31751); experiment: Phospho-Akt cellular SureFire assay, p-Akt2 in WM115 cells; format: cell-based; conditions: insulin stimulated, read-out: Biological Assay 2 IC50 (nM) Akt2 WM115
T6 construct: SureFire assays to detect cellular p-Akt1, p-Akt2 and p-Akt3 levels in WM115 cells (Akt2/3) and LNCaP cells (Akt1); endogenous in cells; host or cells: WM115 (ECACC 91061232), insulin-stimulated
T6 sequence (P31751 whole entry): as the sequence (P31751 whole entry) above
Procedure, shortened: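 Readout is a bead-proximity SureFire assay pairing a pThr308 Akt antibody with a total Akt2 antibody, lysate and beads incubated 2 h plus 2 h at room temperature in the dark. Before lysis, serum-starved WM115 cells received 100 nM insulin (10 min), then test compound (15 min, 0.3% DMSO); IC50 by 4-parameter equation.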

SMILES | IC50 (p-Akt1 in LNCaP cells) | IC50 (Akt3) | IC50 (p-Akt3 in WM115 cells) | IC50 (Akt2) | IC50 (Akt1) | IC50 (p-Akt2 in WM115 cells)
CC(=O)N(C(C)C)[C@H]1CC[C@H](CC(=O)Nc2cnc(-c3ccc([C@]4(N)C[C@](C)(O)C4)cc3)c(-c3ccccc3)c2)CC1 [Example 120, N-(6-(4-(trans-1-amino-3-hydroxy-3-methylcyclobutyl)phenyl)-5-phenylpyridin-3-yl)-2-(trans-4-(N-isopropylacetamido)cyclohexyl)acetamide] | 1300 nM | 7 nM | 15 nM | 65 nM | 8600 nM | 350 nM
CC(C)(N)c1ccc(-c2ncc(NC(=O)C[C@H]3CC[C@H](N4CCCC4=O)CC3)cc2-c2ccccc2)cc1 [Example 24, N-(6-(4-(2-aminopropan-2-yl)phenyl)-5-phenylpyridin-3-yl)-2-(trans-4-(2-oxopyrrolidin-1-yl)cyclohexyl)acetamide] | > 18000 nM | 300 nM | 170 nM | 10000 nM | > 30000 nM | 6700 nM
CC(=O)N[C@H]1CC[C@H](CC(=O)Nc2cnc(-c3ccc([C@]4(N)C[C@H](F)C4)cc3)c(-c3ccccc3)c2)CC1 [Example 15, 2-(trans-4-acetamidocyclohexyl)-N-(6-(4-(trans-1-amino-3-fluorocyclobutyl)phenyl)-5-phenylpyridin-3-yl)acetamide] | > 22000 nM | 180 nM | 21 nM | 580 nM | 7700 nM | 1100 nM
COC(=O)N(C)[C@H]1CC[C@H](CC(=O)Nc2cc(-c3ccccc3)c(-c3ccc(C4(N)CCC4)cc3)nn2)CC1 [Example A55, Methyl (trans-4-(2-((6-(4-(1-aminocyclobutyl)phenyl)-5-phenylpyridazin-3-yl)amino)-2-oxoethyl)cyclohexyl)(methyl)carbamate] | > 30000 nM | 16 nM | 310 nM | 380 nM | > 16000 nM | 5000 nM
CC(C)C(=O)N(C)[C@H]1CC[C@H](CC(=O)Nc2cc(-c3ccccc3)c(-c3ccc(C4(N)CC4)cc3)nn2)CC1 [Example A92, N-(trans-4-(2-((6-(4-(1-aminocyclopropyl)phenyl)-5-phenylpyridazin-3-yl)amino)-2-oxoethyl)cyclohexyl)-N-methylisobutyramide] | > 30000 nM | 29 nM | 140 nM | 1200 nM | > 13000 nM | 2200 nM
CN(C(=O)C1CC1)[C@H]1CC[C@H](CC(=O)Nc2cc(-c3ccccc3)c(-c3ccc(C4(N)CC4)cc3)nn2)CC1 [Example 87, N-(trans-4-(2-((6-(4-(1-aminocyclopropyl)phenyl)-5-phenylpyridazin-3-yl)amino)-2-oxoethyl)cyclohexyl)-N-methylcyclopropanecarboxamide] | > 30000 nM | 29 nM | 130 nM | 510 nM | > 30000 nM | 3300 nM
N[C@]1(c2ccc(-c3nnc(NC(=O)C[C@H]4CC[C@H](N5CCOC5=O)CC4)cc3-c3ccsc3)cc2)C[C@@H](F)C1 [Example 79, N-(6-(4-(trans-1-amino-3-fluorocyclobutyl)phenyl)-5-(thiophen-3-yl)pyridazin-3-yl)-2-(trans-4-(2-oxooxazolidin-3-yl)cyclohexyl)acetamide] | > 30000 nM | 26 nM | 59 nM | 590 nM | > 30000 nM | > 30000 nM
NC1(c2ccc(-c3nnc(NC(=O)C[C@H]4CC[C@H](N5CCOC5=O)CC4)cc3-c3ccccc3)cc2F)CC1 [Example A50, N-(6-(4-(1-aminocyclopropyl)-3-fluorophenyl)-5-phenylpyridazin-3-yl)-2-(trans-4-(2-oxooxazolidin-3-yl)cyclohexyl)acetamide] | > 30000 nM | 140 nM | 270 nM | 2200 nM | > 30000 nM | > 3790 nM
CN([C@H]1CC[C@H](CC(=O)Nc2cnc(-c3ccc(C(C)(C)N)cc3)c(-c3ccsc3)c2)CC1)S(C)(=O)=O [Example A24, N-(6-(4-(2-aminopropan-2-yl)phenyl)-5-(thiophen-3-yl)pyridin-3-yl)-2-(trans-4-(N-methylmethylsulfonamido)cyclo-hexyl)acetamide] | > 30000 nM | 2000 nM | 510 nM | 9600 nM | > 30000 nM | 8900 nM
NC1(c2ccc(-c3nnc(NC(=O)C[C@H]4CC[C@H](N5CCOC5=O)CC4)cc3-c3ccccc3)cc2)CC(F)(F)C1 [Example 61, N-(6-(4-(1-amino-3,3-difluorocyclobutyl)phenyl)-5-phenylpyridazin-3-yl)-2-(trans-4-(2-oxooxazolidin-3-yl)cyclohexyl)acetamide] | > 30000 nM | 17 nM | 66 nM | 200 nM | > 22800 nM | > 10500 nM
CC(=O)N(C)[C@H]1CC[C@H](CC(=O)Nc2cc(-c3ccccc3)c(-c3ccc([C@]4(N)C[C@](C)(O)C4)cc3)nn2)CC1 [Example 57, N-(6-(4-(trans-1-amino-3-hydroxy-3-methylcyclobutyl)phenyl)-5-phenylpyridazin-3-yl)-2-(trans-4-(N-methylacetamido)cyclohexyl)acetamide] | 5300 nM | 7 nM | 8 nM | 190 nM | 1600 nM | 600 nM
CCC(=O)N(C(C)C)[C@H]1CC[C@H](CC(=O)Nc2cc(-c3ccccc3)c(-c3ccc([C@]4(N)C[C@](C)(O)C4)cc3)nn2)CC1 [Example 104, N-(trans-4-(2-((6-(4-(trans-1-amino-3-hydroxy-3-methylcyclobutyl)phenyl)-5-phenylpyridazin-3-yl)amino)-2-oxoethyl)cyclohexyl)-N-isopropylpropionamide] | 1900 nM | 10 nM | 27 nM | 120 nM | 3200 nM | 1300 nM
CCC(=O)N(C)[C@H]1CC[C@H](CC(=O)Nc2cc(-c3ccccc3)c(-c3ccc([C@]4(N)C[C@](C)(O)C4)c(F)c3)nn2)CC1 [Example 126, N-(trans-4-(2-((6-(4-(trans-1-amino-3-hydroxy-3-methylcyclobutyl)-3-fluorophenyl)-5-phenylpyridazin-3-yl)amino)-2-oxoethyl)cyclohexyl)-N-methylpropionamide] | > 30000 nM | 31 nM | 32 nM | 3000 nM | > 30000 nM | 3300 nM
COC(=O)N(C)[C@H]1CC[C@H](CC(=O)Nc2cc(-c3ccccn3)c(-c3ccc(C4(N)CCC4)cc3)cn2)CC1 [Example 86, Methyl (trans-4-(2-((5′-(4-(1-aminocyclobutyl)phenyl)-[2,4′-bipyridin]-2′-yl)amino)-2-oxoethyl)cyclohexyl)(methyl)carbamate] | > 30000 nM | 480 nM | 430 nM | 14000 nM | > 30000 nM | 12000 nM
CCN(C(=O)OC)[C@H]1CC[C@H](CC(=O)Nc2cnc(-c3ccc([C@]4(N)C[C@](C)(O)C4)cc3)c(-c3ccccc3)c2)CC1 [Example 118, Methyl (trans-4-(2-((6-(4-(trans-1-amino-3-hydroxy-3-methylcyclobutyl)phenyl)-5-phenylpyridin-3-yl)amino)-2-oxoethyl)cyclohexyl) (ethyl)carbamate] | 1600 nM | 5 nM | 6 nM | 110 nM | 8500 nM | 230 nM
